Results: US20050107386A1, “Methods of treating diseases and disorders by targeting multiple kinases” (priority 2003, published 2005)

Experiments:
HCT-116 cells = assay: SCID mouse/HCT-116 xenograft model; details: for % Tumor Growth Inhibition / T/C (ratio of mean tumor volume for treated vs. vehicle control) / Tumor Volume: day 28; for Tumor Volume: mean ± SEM
Procedure: In one experiment, female CB.17 SCID mice were inoculated subcutaneously in the right hind limb with 2×10^6 HCT-116 cells. […] Treatment commenced on day 8 and proceeded for the duration of the study. All the compound treatments were given i.p. in a vehicle NPS in a volume of 5 ml/kg. […] The tumor volumes were measured twice a week using calipers. Values are mean±SEM. Statistical analysis was performed using ANOVA.
Female CB.17 SCID mice were inoculated subcutaneously in the right hind limb with 2×10^6 HCT-116 cells. […] Treatment commenced on day 8 and proceeded for the duration of the study. All the treatments were given i.p. in a vehicle NPS in a volume of 5 ml/kg.
Female CB.17 SCID mice were inoculated subcutaneously in the right hind limb with 2×10^6 HCT-116 cells. […] Treatment commenced on day 8 and proceeded for the duration of the study. All the compound treatments were given i.p. in a vehicle NPS in a volume of 5 ml/kg. […] The tumor volumes were measured twice a week using calipers.

NCI-H460 NSCLC xenograft = NCI-H460 NSCLC xenograft model; type: in vivo; details: CC001 combined with the maximum tolerated dose of Taxotere
Procedure: A similar study was performed using an NCI-H460 NSCLC xenograft model in which CC001 was combined with the maximum tolerated dose of Taxotere (an anti-cancer compound related to taxol). […]. […]

[1] = system: HCT-116 colon cancer cells; assay: Activation of kinases and their downstream targets in HCT-116 cells; type: cell-based; details: concentration-dependent
Source text: (§1) CC001 is a low molecular weight mixed kinase inhibitor (MKI) with potent in vitro inhibitory activity against a variety of kinases.

Bmx(h) = target: T1, Bmx(h) (Homo sapiens, UniProt P51813); assay: Bmx(h) kinase assay; type: biochemical; details: 3 μM; percent of control kinase activity
T1 sequence (P51813 1-675): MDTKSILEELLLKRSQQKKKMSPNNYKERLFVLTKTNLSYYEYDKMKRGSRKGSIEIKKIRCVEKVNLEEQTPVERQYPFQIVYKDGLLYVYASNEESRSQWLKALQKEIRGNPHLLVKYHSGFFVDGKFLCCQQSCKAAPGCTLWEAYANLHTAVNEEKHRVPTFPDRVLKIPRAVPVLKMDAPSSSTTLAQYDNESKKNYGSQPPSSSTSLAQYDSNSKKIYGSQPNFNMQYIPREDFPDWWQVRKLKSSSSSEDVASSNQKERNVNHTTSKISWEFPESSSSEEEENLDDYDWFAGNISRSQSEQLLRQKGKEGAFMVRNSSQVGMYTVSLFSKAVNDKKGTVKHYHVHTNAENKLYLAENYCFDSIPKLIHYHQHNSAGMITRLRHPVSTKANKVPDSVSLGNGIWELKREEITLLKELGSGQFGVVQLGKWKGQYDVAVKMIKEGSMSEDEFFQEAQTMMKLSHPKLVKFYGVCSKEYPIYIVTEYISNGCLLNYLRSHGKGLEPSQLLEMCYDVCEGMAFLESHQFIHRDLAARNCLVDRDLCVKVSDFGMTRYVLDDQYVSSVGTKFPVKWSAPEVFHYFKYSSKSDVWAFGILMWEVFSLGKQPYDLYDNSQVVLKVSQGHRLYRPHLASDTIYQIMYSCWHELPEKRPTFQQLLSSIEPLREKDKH
Procedure: (§2) Six compounds (presumptive single agents) were tested against a panel of 50 kinases. The results are presented in Table 2; numbers for each kinase indicate the percent of control kinase activity in the presence of a 3μM concentration of the indicated agent.
(§3) Agents that target two or more different kinases are useful in the methods of the invention as described elsewhere herein. Such compounds may be identified, and their effect on certain kinases may be identified, using the assays briefly described below in Examples 4-83. Each of these assays was carried out as described in Davies et al., Biochem. J., 351:95-105 (2000). All assays were carried out at 10 μM ATP unless otherwise noted.

SGK(h) = target: T2, SGK(h) (Homo sapiens, UniProt O00141); assay: SGK(h) kinase assay; type: biochemical; details: 3 μM; percent of control kinase activity
T2 sequence (O00141 1-431): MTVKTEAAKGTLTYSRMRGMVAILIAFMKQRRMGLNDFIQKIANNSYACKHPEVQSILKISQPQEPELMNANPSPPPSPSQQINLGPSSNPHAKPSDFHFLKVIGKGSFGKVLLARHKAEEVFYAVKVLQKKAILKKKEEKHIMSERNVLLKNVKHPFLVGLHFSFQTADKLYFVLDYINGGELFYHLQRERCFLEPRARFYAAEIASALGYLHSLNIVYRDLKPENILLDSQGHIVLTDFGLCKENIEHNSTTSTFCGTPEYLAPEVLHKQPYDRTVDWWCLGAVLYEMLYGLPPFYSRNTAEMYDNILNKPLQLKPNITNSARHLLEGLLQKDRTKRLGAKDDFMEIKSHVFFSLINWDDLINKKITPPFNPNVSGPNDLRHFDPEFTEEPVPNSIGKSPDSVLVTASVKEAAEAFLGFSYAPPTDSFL
Procedure: as §2, §3
In a final reaction volume of 25 μl, SGK(h) (5-10 mU) is incubated with 8 mM MOPS pH 7.0, 0.2 mM EDTA, 30 μM […] (SEQ ID NO:2), 10 mM MgAcetate and [γ-^33P-ATP] (specific activity approx. 500 cpm/pmol, concentration as required). The reaction is initiated by the addition of Mg^2+[γ-^33P-ATP]. After incubation for 40 minutes at room temperature, the reaction is stopped by the addition of 5 μl of a 3% phosphoric acid solution. 10 μl of the reaction is then spotted onto a P30 filtermat and washed three times for 5 minutes in 75 mM phosphoric acid and once in methanol prior to drying and scintillation counting.

PDGFRβ(h) = PDGFRβ(h) (Homo sapiens, UniProt P09619); assay: PDGFRβ(h) kinase assay; type: biochemical; details: 3 μM; percent of control kinase activity
Sequence of PDGFRβ(h) (P09619 33-1106): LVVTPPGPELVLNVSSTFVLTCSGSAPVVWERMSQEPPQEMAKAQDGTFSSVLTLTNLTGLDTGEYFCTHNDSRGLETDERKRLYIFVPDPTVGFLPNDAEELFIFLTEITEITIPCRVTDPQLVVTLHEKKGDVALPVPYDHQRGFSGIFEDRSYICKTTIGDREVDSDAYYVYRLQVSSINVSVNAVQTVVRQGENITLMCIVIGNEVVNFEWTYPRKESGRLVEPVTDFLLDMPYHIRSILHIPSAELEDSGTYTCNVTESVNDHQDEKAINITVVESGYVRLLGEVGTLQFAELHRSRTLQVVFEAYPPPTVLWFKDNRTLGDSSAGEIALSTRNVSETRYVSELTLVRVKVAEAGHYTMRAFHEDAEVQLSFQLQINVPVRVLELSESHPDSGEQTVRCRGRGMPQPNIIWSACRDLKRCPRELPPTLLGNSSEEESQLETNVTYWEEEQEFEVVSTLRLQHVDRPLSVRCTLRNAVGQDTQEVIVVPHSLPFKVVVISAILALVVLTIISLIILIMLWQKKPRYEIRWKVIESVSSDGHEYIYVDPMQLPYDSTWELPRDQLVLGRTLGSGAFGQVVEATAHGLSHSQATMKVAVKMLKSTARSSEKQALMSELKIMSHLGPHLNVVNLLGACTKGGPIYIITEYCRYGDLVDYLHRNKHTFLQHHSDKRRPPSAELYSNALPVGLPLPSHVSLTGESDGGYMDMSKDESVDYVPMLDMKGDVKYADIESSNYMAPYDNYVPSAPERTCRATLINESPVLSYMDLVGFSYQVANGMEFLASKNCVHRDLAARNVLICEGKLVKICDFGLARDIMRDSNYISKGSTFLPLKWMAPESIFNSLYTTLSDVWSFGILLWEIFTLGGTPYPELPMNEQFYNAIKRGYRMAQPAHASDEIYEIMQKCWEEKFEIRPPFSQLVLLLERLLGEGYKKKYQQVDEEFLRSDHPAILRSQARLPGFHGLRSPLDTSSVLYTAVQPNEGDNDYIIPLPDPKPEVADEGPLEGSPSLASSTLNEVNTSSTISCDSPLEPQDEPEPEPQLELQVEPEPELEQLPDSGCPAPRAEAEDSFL
Procedure: as §2, §3
In a final reaction volume of 25 μl, PDGFRβ (h) (5-10 mU) is incubated with 8 mM MOPS pH 7.0, 0.2 mM EDTA, 0.1 mg/ml poly(Glu, Tyr) 4:1, 10 mM MnCl2, 10 mM MgAcetate and [γ-^33P-ATP] (specific activity approx. 500 cpm/pmol, concentration as required). The reaction is initiated by the addition of Mg^2+ [γ-^33P-ATP]. After incubation for 40 minutes at room temperature, the reaction is stopped by the addition of 5 μl of a 3% phosphoric acid solution. 10 μl of the reaction is then spotted onto a Filtermat A and washed three times for 5 minutes in 75 mM phosphoric acid and once in methanol prior to drying and scintillation counting.

colon and lung tumors = assay: SCID mice bearing colon and lung tumors; type: in vivo, mouse; details: 10 mg/kg to 20mg/kg twice a day, single agent
Procedure: SCID mice bearing colon and lung tumors were treated with CC001 at a concentration of 10 mg/kg to 20mg/kg, administered twice a day.

[2] = system: cancer cell lines: non-small cell lung (NSCLC); colon; pancreatic; head and neck; breast and ovarian cancers; assay: Antiproliferative activity against a broad spectrum of cancer cell lines; type: cell-based; details: each of the cancer cell line types
Source text: as §1

cancer cell lines = assay: In vitro combination studies with standard chemotherapeutic agents and signal transduction inhibitors; type: cell-based; details: with standard chemotherapeutic agents such as taxol, and novel signal transduction inhibitors
Source text: as §1

[3] = Table 4, i.p. 20 mg/kg b.i.d. (b.i.d. day 8-11, then qd)
[4] = CC001 with Camptosar, model not named

In the case of `CC(C)Cc1nc(-c2ccc3[nH]nc(-c4ccc5cc(OCCN6CCCC6)ccc5c4)c3c2)n[nH]1` [CC002, 5-(5-Isobutyl-1H-[1,2,4]Triazol-3-yl)-3-[6-(2-Pyrrolidin-1-yl-Ethoxy)-Naphthalen-2-yl]-1H-Indazole], the “TGD (days to reach 1000 mm^3)” value (HCT-116 cells; [3]) is reported as over 12 days, the “% Tumor Growth Inhibition” value (HCT-116 cells; [3]) is reported as 68% and the “T/C (ratio of mean tumor volume for treated vs. vehicle control)” value (HCT-116 cells; [3]) is reported as 35. The “Tumor Volume” value (HCT-116 cells; [3]) was 792.8 ± 86.5^e mm^3 and the “tumor volumes over the course of the experiment, in words” value (HCT-116 cells; i.p. 20 mg/kg b.i.d. day 8-11, then qd, P<0.001 vs vehicle control) was “reduced tumor volumes”.

For `COc1ccc2cc(-c3n[nH]c4ccc(-c5n[nH]c(CN6CCOCC6)n5)cc34)ccc2c1` [CC001, 3-(6-Methoxynaphthalen-2-yl)-5-(5-Morpholin-4-Ylmethyl-1H-[1,2,4]Triazol-3-yl)-1H-Indazole], the T/C ratio (NCI-H460 NSCLC xenograft) was 16-28%, the “additional toxicity as evidenced by weight loss” value (NCI-H460 NSCLC xenograft) was “No apparent additional toxicity” and the “activation of kinases and their downstream targets” value [1] was “inhibited the activation of kinases and their downstream targets”. The “Inhibitory activity (% of control), Bmx(h)” value (Bmx(h)) was 74 % of control, the “Inhibitory activity (% of control), SGK(h)” value (SGK(h)) was 56 % of control and the “Inhibitory activity (% of control), PDGFRβ(h)” value (PDGFRβ(h)) was 94 % of control. For the same molecule, the T/C ratio (colon and lung tumors) was 40-60%, the “tumor growth, in words” value (colon and lung tumors) was “inhibited tumor growth in a dose-dependent manner” and the “effect on tumor development, in words” value (HCT-116 cells; CC001 at 20 mg/kg administered with 2.5 mg/kg Camptosar) was “equivalent to an administration of Camptosar alone at 10 mg/kg”. The T/C ratio (HCT-116 cells; [4]) was about 15%, the “in vivo effects in combination, in words” value (HCT-116 cells; [4]) was “Additive in vivo effects” and the “TGD (days to reach 1000 mm^3)” value (HCT-116 cells; Table 3, i.p. 20 mg/kg b.i.d.) was over 12 days. The “% Tumor Growth Inhibition” value (HCT-116 cells; Table 3, i.p. 20 mg/kg b.i.d.) was 69.6%, the “T/C (ratio of mean tumor volume for treated vs. vehicle control)” value (HCT-116 cells; Table 3, i.p. 20 mg/kg b.i.d.) was 32 and the “Tumor Volume” value (HCT-116 cells; Table 3, i.p. 20 mg/kg b.i.d.) was 798.3 ± 71.1^e mm^3. The “% Tumor Growth Inhibition” value (HCT-116 cells; Table 5, i.p. 20 mg/kg b.i.d.) was 69%, the “T/C (ratio of mean tumor volume for treated vs. vehicle control)” value (HCT-116 cells; Table 5, i.p. 20 mg/kg b.i.d.) was 34 and the “Tumor Volume” value (HCT-116 cells; Table 5, i.p. 20 mg/kg b.i.d.) was 752.5 ± 66.6^e mm^3. The “TGD (500 mm^3)” value (HCT-116 cells; Table 5, i.p. 20 mg/kg b.i.d., days to reach 500 mm^3) was over 7 days, the “TGD (1000 mm^3)” value (HCT-116 cells; Table 5, i.p. 20 mg/kg b.i.d., days to reach 1000 mm^3) was over 10 days and the “tumor mass over the course of the experiment, in words” value (HCT-116 cells; i.p. 20 mg/kg b.i.d., P<0.001 compared to vehicle control) was “significantly smaller tumor mass”. The “antiproliferative activity, IC50 values” [2] was “nanomolar range” and the “antiproliferative activity in combination” value (cancer cell lines) was “additive and/or synergistic antiproliferative activity”.

For `CCN1CCC[C@H]1COc1ccc2cc(-c3n[nH]c4ccc(-c5nc(CC(C)(C)C)n[nH]5)cc34)ccc2c1` [CC005, 2-[((2s)-1-ethylpyrrolidin-2-yl)methoxy]-6-{5-[3-(2,2-Dimethylpropyl)(1H-1,2,4,-triazol-5-yl)](1H-indazol-3-yl)}naphthalene], the “Inhibitory activity (% of control), Bmx(h)” value (Bmx(h)) was 36 % of control, the “Inhibitory activity (% of control), SGK(h)” value (SGK(h)) was 4 % of control and the “Inhibitory activity (% of control), PDGFRβ(h)” value (PDGFRβ(h)) was 20 % of control.

With `CC(C)(C)Cc1nc(-c2ccc3[nH]nc(-c4ccc5cc(OCc6ccccn6)ccc5c4)c3c2)n[nH]1` [CC004, 5-[5-(2,2-Dimethyl-propyl)-1H-[1,2,4]triazol-3-yl]-3-[6-(pyridine-2-ylmethoxy)-naphthalen-2-yl]-1H-indazole] the “Inhibitory activity (% of control), Bmx(h)” value (Bmx(h)) was 98 % of control, the “Inhibitory activity (% of control), SGK(h)” value (SGK(h)) was 33 % of control and the “Inhibitory activity (% of control), PDGFRβ(h)” value (PDGFRβ(h)) was 91 % of control.
